Patent US9169254B2, “Spiroimidazolone derivative” (Chugai Seiyaku Kabushiki Kaisha, priority 2009, dated 2015)

biological target: T1, human PTH1 receptor (Homo sapiens, UniProt Q03431); assay: In vitro cAMP signal activity in HKRK-B7 cells (LLC-PK1 cells overexpressing the human PTH1 receptor); type: cell-based; details: HKRK-B7 cells; compound at 1×10^−3 M; […]; 0.1 µM
T1 sequence (Q03431 27-593): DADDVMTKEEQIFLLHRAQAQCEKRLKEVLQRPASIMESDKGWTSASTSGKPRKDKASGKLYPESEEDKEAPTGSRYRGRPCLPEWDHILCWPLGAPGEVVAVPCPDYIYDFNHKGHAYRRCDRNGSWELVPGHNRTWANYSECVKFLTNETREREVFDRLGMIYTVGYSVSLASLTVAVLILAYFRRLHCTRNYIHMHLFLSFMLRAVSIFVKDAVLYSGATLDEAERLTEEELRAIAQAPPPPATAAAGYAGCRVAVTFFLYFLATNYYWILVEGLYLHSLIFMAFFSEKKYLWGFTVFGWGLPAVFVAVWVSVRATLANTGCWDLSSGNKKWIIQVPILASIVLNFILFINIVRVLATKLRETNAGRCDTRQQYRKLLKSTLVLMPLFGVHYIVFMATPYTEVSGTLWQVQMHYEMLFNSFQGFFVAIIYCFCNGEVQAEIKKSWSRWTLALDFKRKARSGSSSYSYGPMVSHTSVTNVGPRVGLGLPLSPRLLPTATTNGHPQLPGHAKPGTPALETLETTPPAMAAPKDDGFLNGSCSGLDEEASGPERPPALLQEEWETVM

SMILES	cAMP production activity (%)
Cc1cc(C(=O)N2CCC(=O)CC2)cc(C)c1/C=C/S(=O)(=O)N1CCC2(CC1)N=C(c1ccc(F)c(C(F)(F)F)c1)NC2=O [Compound 972, 8-{(E)-2-[2,6-dimethyl-4-(4-oxo-piperidine-1-carbonyl)-phenyl]-ethenesulfonyl}-2-(4-fluoro-3-trifluoromethyl-phenyl)-1,3,8-triaza-spiro[4.5]dec-1-en-4-one]	89%
COCCOC(=O)N1CCCC(C2=NC3(CCN(S(=O)(=O)c4cccc(Cl)c4)CC3)C(=O)N2)C1 (stereo not drawn) [Compound 460, 3-[8-(3-Chloro-benzenesulfonyl)-4-oxo-1,3,8-triaza-spiro[4.5]dec-1-en-2-yl]-piperidine-1-carboxylic acid 2-methoxy-ethyl ester]	18%

same assay, conditions: HKRK-B7 cells; compound at 1×10^−3 M; cAMP produced as percentage of that produced by hPTH(1-34) at 100 nM

SMILES	cAMP production activity (%)
Cc1cc(N(CC(F)(F)F)C(N)=O)ccc1/C=C/S(=O)(=O)N1CCC2(CC1)N=C(c1cccc(OC(F)(F)F)c1)NC2=O [Compound 731, 1-(3-Methyl-4-{(E)-2-[4-oxo-2-(3-trifluoromethoxy-phenyl)-1,3,8-triaza-spiro[4.5]dec-1-ene-8-sulfonyl]-vinyl}-phenyl)-1-(2,2,2-trifluoro-ethyl)-urea]	54%
Cc1cc(OC[C@H](O)CO)cc(C)c1CCS(=O)(=O)N1CCC2(CC1)N=C(c1ccc(F)c(OC(F)(F)F)c1)NC2=O [Compound 1329, 8-{2-[4-((R)-2,3-dihydroxy-propoxy)-2,6-dimethyl-phenyl]-ethanesulfonyl}-2-(4-fluoro-3-trifluoromethoxy-phenyl)-1,3,8-triaza-spiro[4.5]dec-1-en-4-one]	85%
Cc1cc(OC2CCN(C(=O)OC(C)(C)C)CC2)ccc1CCS(=O)(=O)N1CCC2(CC1)N=C(c1cccc(OC(F)(F)F)c1)NC2=O [Compound 859, 4-(3-methyl-4-{2-[4-oxo-2-(3-trifluoromethoxy-phenyl)-1,3,8-triaza-spiro[4.5]dec-1-ene-8-sulfonyl]-ethyl}-phenoxy)-piperidine-1-carboxylic acid tert-butyl ester]	26%
Cc1cc(N(C)C(N)=O)c(C)cc1CCS(=O)(=O)N1CCC2(CC1)N=C(C1CCC(C)CC1)NC2=O (stereo not drawn) [Compound 680, 1-(2,5-dimethyl-4-{2-[2-(4-methyl-cyclohexyl)-4-oxo-1,3,8-triaza-spiro[4.5]dec-1-ene-8-sulfonyl]-ethyl}-phenyl)-1-methyl-urea]	101%
CCCCCc1ccc(C2=NC3(CCN(S(=O)(=O)CCc4c(C)cc(N(C)C(N)=O)cc4C)CC3)C(=O)N2)cc1OC [Compound 1354, 1-(4-{2-[2-(3-methoxy-4-pentyl-phenyl)-4-oxo-1,3,8-triaza-spiro[4.5]dec-1-ene-8-sulfonyl]-ethyl}-3,5-dimethyl-phenyl)-1-methyl-urea]	128%
Cc1cc(OCCC(O)CO)cc(C)c1/C=C/S(=O)(=O)N1CCC2(CC1)N=C(c1ccc(F)c(C(F)(F)F)c1)NC2=O (stereo not drawn) [Compound 639, 8-{(E)-2-[4-(3,4-Dihydroxy-butoxy)-2,6-dimethyl-phenyl]-ethenesulfonyl}-2-(4-fluoro-3-trifluoromethyl-phenyl)-1,3,8-triaza-spiro[4.5]dec-1-en-4-one]	101%
Cc1cc(N(C)C(N)=O)cc(C)c1CCS(=O)(=O)N1CCC2(CC1)N=C(C1CCCC(C)C1)NC2=O (stereo not drawn) [Compound 1297, 1-(3,5-Dimethyl-4-{2-[2-(3-methyl-cyclohexyl)-4-oxo-1,3,8-triaza-spiro[4.5]dec-1-ene-8-sulfonyl]-ethyl}-phenyl)-1-methyl-urea]	98%
CC(=O)N(c1ccc(/C=C/S(=O)(=O)N2CCC3(CC2)N=C(c2cccc(OC(F)(F)F)c2)NC3=O)c(C)c1)C(C)C [Compound 603, N-isopropyl-N-(3-methyl-4-{(E)-2-[4-oxo-2-(3-trifluoromethoxy-phenyl)-1,3,8-triaza-spiro[4.5]dec-1-ene-8-sulfonyl]-vinyl}-phenyl)-acetamide]	69%
Cc1cc(N2CCN(C(=O)OC(C)(C)C)CC2=O)ccc1/C=C/S(=O)(=O)N1CCC2(CC1)N=C(C1CCC(C)CC1)NC2=O (stereo not drawn) [Compound 578, 4-(3-methyl-4-{(E)-2-[2-(4-methyl-cyclohexyl)-4-oxo-1,3,8-triaza-spiro[4.5]dec-1-ene-8-sulfonyl]-vinyl}-phenyl)-3-oxo-piperazine-1-carboxylic acid tert-butyl ester]	13%
CC(=O)N(CCO)c1ccc(/C=C/S(=O)(=O)N2CCC3(CC2)N=C(c2cccc(C(F)(F)F)c2F)NC3=O)c(C)c1 [Compound 259, N-(4-{(E)-2-[2-(2-Fluoro-3-trifluoromethyl-phenyl)-4-oxo-1,3,8-triaza-spiro[4.5]dec-1-ene-8-sulfonyl]-vinyl}-3-methyl-phenyl)-N-(2-hydroxy-ethyl)-acetamide]	67%
Cc1cc(NS(=O)(=O)NCCCO)ccc1/C=C/S(=O)(=O)N1CCC2(CC1)N=C(c1cccc(OC(F)(F)F)c1)NC2=O [Compound 743, N-(3-Hydroxy-propyl)-N′-(3-methyl-4-{(E)-2-[4-oxo-2-(3-trifluoromethoxy-phenyl)-1,3,8-triaza-spiro[4.5]dec-1-ene-8-sulfonyl]-vinyl}-phenyl)-sulfamide]	54%
O=C1NC(c2cccc(OC(F)(F)F)c2)=NC12CCN(S(=O)(=O)CCc1cccc3ncccc13)CC2 [Compound 654, 8-(2-quinolin-5-yl-ethanesulfonyl)-2-(3-trifluoromethoxy-phenyl)-1,3,8-triaza-spiro[4.5]dec-1-en-4-one]	50%
O=C1NC(C2CCCN(S(=O)(=O)Cc3ccccc3)C2)=NC12CCN(S(=O)(=O)c1cccc(Cl)c1)CC2 (stereo not drawn) [Compound 42, 8-(3-chloro-benzenesulfonyl)-2-(1-phenylmethanesulfonyl-piperidin-3-yl)-1,3,8-triaza-spiro[4.5]dec-1-en-4-one]	27%
Cc1cc(C(=O)N(C)C)ccc1CCS(=O)(=O)N1CCC2(CC1)N=C(c1cccc(-c3ccccc3)c1)NC2=O [Compound 172, 4-[2-(2-biphenyl-3-yl-4-oxo-1,3,8-triaza-spiro[4.5]dec-1-ene-8-sulfonyl)-ethyl]-3,N,N-trimethyl-benzamide]	102%
Cc1cc(C(=O)N2CC[C@H](N(C)C)C2)ccc1CCS(=O)(=O)N1CCC2(CC1)N=C(c1cccc(C(F)(F)F)c1)NC2=O [Compound 372, 8-{2-[4-((S)-3-dimethylamino-pyrrolidine-1-carbonyl)-2-methyl-phenyl]-ethanesulfonyl}-2-(3-trifluoromethyl-phenyl)-1,3,8-triaza-spiro[4.5]dec-1-en-4-one]	51%
O=C(Cc1ccccn1)N1CCCC(C2=NC3(CCN(S(=O)(=O)CCc4cccc5ccccc45)CC3)C(=O)N2)C1 (stereo not drawn) [Compound 435, 8-(2-naphthalen-1-yl-ethanesulfonyl)-2-[1-(2-pyridin-2-yl-acetyl)-piperidin-3-yl]-1,3,8-triaza-spiro[4.5]dec-1-en-4-one]	17%
CC(=O)N(CCO)c1cc(C)c(/C=C/S(=O)(=O)N2CCC3(CC2)N=C(c2cccc(OC(F)(F)F)c2)NC3=O)cc1F [Compound 717, N-(2-Fluoro-5-methyl-4-{(E)-2-[4-oxo-2-(3-trifluoromethoxy-phenyl)-1,3,8-triaza-spiro[4.5]dec-1-ene-8-sulfonyl]-vinyl}-phenyl)-N-(2-hydroxy-ethyl)-acetamide]	111%
Cc1cc(C(=O)N2CCC3(CC2)COC3)cc(C)c1/C=C/S(=O)(=O)N1CCC2(CC1)N=C(c1ccc(F)c(C(F)(F)F)c1)NC2=O [Compound 644, 8-{(E)-2-[2,6-dimethyl-4-(2-oxa-7-aza-spiro[3.5]nonane-7-carbonyl)-phenyl]-ethenesulfonyl}-2-(4-fluoro-3-trifluoromethyl-phenyl)-1,3,8-triaza-spiro[4.5]dec-1-en-4-one]	75%
Cc1cc(C(=O)N2CCCN2)cc(C)c1/C=C/S(=O)(=O)N1CCC2(CC1)N=C(C1CCC(CCC(F)(F)F)CC1)NC2=O (stereo not drawn) [Compound 997, 8-{(E)-2-[2,6-dimethyl-4-(pyrazolidine-1-carbonyl)-phenyl]-ethenesulfonyl}-2-[4-(3,3,3-trifluoro-propyl)-cyclohexyl]-1,3,8-triaza-spiro[4.5]dec-1-en-4-one]	74%
CCCOCCCCCC1=NC2(CCN(S(=O)(=O)CCc3c(C)cc(N(C)C(N)=O)cc3C)CC2)C(=O)N1 [Compound 1352, 1-(3,5-dimethyl-4-{2-[4-oxo-2-(5-propoxy-pentyl)-1,3,8-triaza-spiro[4.5]dec-1-ene-8-sulfonyl]-ethyl}-phenyl)-1-methyl-urea]	78%
CC1(C2=NC3(CCN(S(=O)(=O)c4cccc(Cl)c4)CC3)C(=O)N2)CCCCC1 [Compound 14, 8-(3-chloro-benzenesulfonyl)-2-(1-methyl-cyclohexyl)-1,3,8-triaza-spiro[4.5]dec-1-en-4-one]	38%
O=C1NC(C2CCCCC2)=NC12CCN(S(=O)(=O)/C=C/C1CCCC1)CC2 [Compound 344, 2-cyclohexyl-8-((E)-2-cyclopentyl-ethenesulfonyl)-1,3,8-triaza-spiro[4.5]dec-1-en-4-one]	35%
